Several values for one entry are separate records, joined by “and”; a condition that tells them apart may be missing. Identical values can stand only once.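 Briefly, cells in 96-well plates were exposed to five compound concentrations for 48 h, and endpoints were estimated by linear interpolation. The concentration for 50% growth inhibition is given as GI50. At the TGI there is no net growth.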

Test in all cases: NCI-60 cell line screen, 48 h
Experiment [1] concerns COLO 205 colon.
For experiment [2], the system named is HCT-15 colon.
In experiment [3] the test system is HL-60(TB) leukemia.
Experiment [4] concerns HOP-92 NSCLC.
For experiment [5], the system named is KM12 colon.
Experiment [6] concerns NCI-H460 lung.
Experiment [7] deals with NCI/ADR-RES ovarian.
Experiment [8] deals with SK-OV-3 ovarian.
Experiment [9] concerns SN12C renal.
The test system of experiment [10] is SNB-19 CNS.

For `CC[C@]1(O)C[C@H]2CN(CCc3c([nH]c4ccccc34)C(C(=O)OC)(c3cc4c(cc3OC)N(C)[C@H]3[C@@](O)(C(=O)OC)[C@H](OC(C)=O)[C@]5(CC)[C@@H]6C[C@@H]6CN6CC[C@]43[C@@H]65)C2)C1` (stereo not given in full), the GI50 in [1] was 0.00246 µM; in experiment [2] it was 0.0374 µM; in experiment [3], 0.0034 µM; in experiment [4], 0.00682 µM; in experiment [5] it was 0.00296 µM; in experiment [6], 0.00426 µM. Also, the GI50 in [7] is 0.101 µM; in experiment [8] it was 0.00285 µM; in experiment [9], 0.00838 µM; in [10] it was 0.00667 µM. Further, the TGI is 0.00937 µM in experiment [1]; more than 14.3 µM in [2]; 0.0108 µM in [3]; 0.827 µM in experiment [4]; 1.26 µM in experiment [5]; more than 4.61 µM in experiment [6]. Also, the TGI in experiment [7] was 0.797 µM; in [8], 0.0176 µM; in experiment [9], more than 14.3 µM; in [10] it was more than 14.3 µM.

Consider `COc1c(C)c(OCC=C(C)C)cc(CO)c1CO`, for which the TGI in experiment [1], in experiment [2], in [3], in experiment [4], in [5] and in experiment [6] was more than 100 µM in each case. Besides, the TGI in experiment [7], in [8], in experiment [9] and in experiment [10] was more than 100 µM throughout.

As for `O=[N+]([O-])c1ccccc1N=Nc1c(O)[nH]c2c(Cl)cc(Cl)cc12`, the TGI in [1] was more than 100 µM; in [2] it was more than 100 µM; in [3], more than 93 µM; in experiment [4], more than 68.2 µM; in experiment [5], more than 100 µM; in experiment [6], more than 100 µM. The TGI in [7], in [8], in [9] and in experiment [10] was more than 100 µM each time.

As for `CCN(CCNS(C)(=O)=O)c1ccc(N)c(C)c1`, the GI50 in experiment [1] was 13.4 µM; in experiment [2] it was 3.48 µM; in experiment [3] it was 7.01 µM; in experiment [4], 4.13 µM; in experiment [5] it was 13.1 µM; in [6], 23.2 µM. The GI50 is 11.8 µM in experiment [7], 17.9 µM in experiment [8], 11.4 µM in [9] and 17.7 µM in [10]. For the same compound, the TGI in experiment [1] was found to be 28.9 µM; in experiment [2], 17.4 µM; in [3], 25.7 µM; in experiment [4], 16.3 µM; in [5], 26.9 µM; in [6], 53.7 µM. Besides, the TGI in experiment [7] turned out to be 40.9 µM; in [8], 32 µM; in experiment [9] it was 23.9 µM; in experiment [10] it was 33.8 µM.

For the compound `Cc1ccc2c(c1)c1ccc3c(c1n2C)C(=O)C=CC3=O`, the TGI was 3.16 µM in experiment [1]; 3.92 µM in [2]; 1.69 µM in [3]; 3.92 µM in [4]; more than 10 µM in experiment [5]; more than 10 µM in [6]. For the same compound, the TGI in experiment [7] was more than 7.53 µM; in experiment [8], more than 10 µM; in experiment [9], more than 7.51 µM; in experiment [10], more than 10 µM.

With `O=C(CC(=O)Nc1ccccc1)NNC(Sc1ccccc1)c1cc(N=Nc2ccc(Br)cc2)ccc1O` (stereo not given), the TGI was more than 10 µM in experiment [1]; more than 10 µM in [2]; 1.9 µM in experiment [3]; more than 10 µM in experiment [4]; more than 10 µM in experiment [5]; more than 10 µM in experiment [6]. Besides, the TGI in [7], in experiment [8], in experiment [9] and in [10] was more than 10 µM in each case.

On to `COc1ccc(/C=C\c2cc(OC)c(OC)c(OC)c2)cc1OCC(=O)O`, for which the TGI in [1] was more than 100 µM; in experiment [2], 80.8 µM; in experiment [3] it was 23.8 µM; in [4], 55.7 µM; in experiment [5] it was more than 74 µM; in [6] it was more than 55.3 µM. The TGI in experiment [7] is 5.39 µM; in experiment [8], 94 µM; in experiment [9], more than 100 µM; in [10] it was more than 45.6 µM.

Turning to `O=C(Nc1nc(-c2c[nH]c3ccccc23)cs1)c1n[nH]c(=O)c2ccccc12`, the GI50 in [1] is 2.47 µM; in experiment [2] it was 0.29 µM; in experiment [3], 0.777 µM; in [4] it was more than 30.6 µM; in experiment [5], 1.76 µM; in [6], 0.451 µM. The GI50 in [7] is 6.74 µM; in [8] it was 12.6 µM; in [9] it was 10.8 µM; in experiment [10] it was more than 34.5 µM. For the same compound, the TGI in [1] was more than 60.1 µM; in experiment [2] it was more than 36.7 µM; in [3], more than 100 µM; in [4], more than 100 µM; in experiment [5], more than 100 µM; in [6], more than 36.8 µM. The TGI in [7] is 78.6 µM; in experiment [8], more than 100 µM; in experiment [9], more than 100 µM; in experiment [10], more than 75 µM.

As to `CCn1cc(-c2ccnc3[nH]c(-c4cccc(CN(C)C)c4)cc23)c(-c2ccc(NC(=O)N(C)C)cc2)n1`, the GI50 in [1] is < 0.01 µM and 0.0272 µM; in experiment [2], 2.85 µM and 3.15 µM; in experiment [3], 1.46 µM and 0.863 µM; in [4], 0.338 µM and 0.294 µM; in experiment [5], 1.06 µM and 1.62 µM; in experiment [6], 0.209 µM and 0.109 µM. Moreover, the GI50 in [7] is 23.4 µM and > 10 µM; in experiment [8], 2.16 µM and 3.83 µM; in [9], 1.38 µM and 0.994 µM; in experiment [10] it was 10 µM and > 10 µM. The TGI was 3.81 µM and 2.99 µM in experiment [1]; 27.2 µM and > 10 µM in [2]; 8.3 µM and > 10 µM in [3]; 5.2 µM and 2.99 µM in experiment [4]; 13.5 µM and > 10 µM in [5]; 13.7 µM and > 10 µM in [6]. In addition, the TGI is more than 100 µM in experiment [7]; 15.2 µM and > 10 µM in experiment [8]; more than 57.8 µM in [9]; 45 µM and > 10 µM in experiment [10].

`CC(C)=CCC1=C(O)c2ccccc2C(=O)C1=O`: the GI50 is 18.4 µM and 52.3 µM and 28.8 µM in experiment [1]; 12.4 µM in experiment [7]; > 100 µM and 47.7 µM in [8]; > 100 µM and 31.3 µM in experiment [9]; > 100 µM and 16.4 µM and 29.4 µM in [10]. Moreover, the TGI in [1] was 37.5 µM and > 100 µM; in experiment [2] it was more than 100 µM; in experiment [3], more than 100 µM; in experiment [4] it was more than 100 µM; in experiment [5], more than 100 µM; in [6] it was more than 100 µM. The TGI in [7], in [8], in experiment [9] and in experiment [10] was more than 100 µM throughout.

Regarding `COc1ccc(-c2cc(=O)oc3c4c(ccc23)OCN(Cc2ccc(F)cc2)C4)cc1`, the GI50 was 18.7 µM in experiment [1]; 15.4 µM in experiment [2]; 23.2 µM in experiment [3]; 10 µM in experiment [4]; 17.6 µM in experiment [5]; 15.9 µM in [6]. For the same compound, the GI50 was 17.2 µM in experiment [7], 19.1 µM in experiment [8], 15.6 µM in [9] and 15.6 µM in [10]. The TGI in experiment [1] was 36.1 µM; in [2] it was 31.8 µM; in experiment [3], 57.4 µM; in experiment [4] it was 24.2 µM; in experiment [5], 35.2 µM; in experiment [6], 30.2 µM. The TGI in [7] came out at 42.9 µM; in experiment [8] it was 52.9 µM; in [9] it was 32.2 µM; in experiment [10], 36.4 µM.

For `COc1cc2c3c(n(C)c(=O)c2cc1OC)-c1cc2c(cc1C3=O)OCO2`, the TGI in experiment [1], in experiment [2], in [3], in experiment [4], in experiment [5] and in [6] was more than 100 µM in each case. Moreover, the TGI in [7], in experiment [8], in [9] and in experiment [10] was more than 100 µM in each case.

Turning to `COc1ccc(-c2c(C#N)c(N3CCOCC3)nc3[nH]c(=S)[nH]c(=S)c23)cc1OC`, the GI50 in [1] is 66.8 µM; in experiment [2], 43.6 µM; in [3], 36.2 µM; in experiment [4] it was 48.2 µM; in experiment [5] it was 29.1 µM; in [6] it was 27.7 µM. Moreover, the GI50 was 56.6 µM in [7], 29.1 µM in [8], 21.7 µM in experiment [9] and more than 100 µM in experiment [10]. Also, the TGI in experiment [1], in experiment [2], in experiment [3], in experiment [4], in [5] and in experiment [6] was more than 100 µM in each case. Besides, the TGI in experiment [7] was more than 100 µM; in experiment [8], more than 100 µM; in experiment [9] it was 91.3 µM; in experiment [10], more than 100 µM.

As to `COC(=O)C1=CN(CC2=CC(=O)C(C)=CC2=O)C=C(C(=O)OC)C1c1ccccc1OC`, the GI50 in [1] was 18.9 µM; in experiment [2], 18.9 µM; in experiment [3] it was 4.74 µM; in experiment [4], 9.31 µM; in experiment [5], 23.6 µM; in experiment [6], 33.7 µM. Further, the GI50 was 17.4 µM in [7], more than 100 µM in [8], 14.8 µM in experiment [9] and more than 54.9 µM in experiment [10]. Moreover, the TGI is 38.2 µM in [1]; 39.2 µM in experiment [2]; 18.5 µM in experiment [3]; 21.9 µM in [4]; more than 72.3 µM in experiment [5]; more than 87.7 µM in experiment [6]. Further, the TGI in experiment [7] was 34.8 µM; in experiment [8] it was more than 100 µM; in experiment [9] it was 32.9 µM; in [10], more than 100 µM.

On to `C=C(C)C(C1C=C(CCC(C=O)=C(C)C)C(=O)O1)C1(OC)C=C(C)C(=O)O1` (stereo not given), for which the GI50 in experiment [1] is 63.6 µM; in [2], more than 100 µM; in [3] it was more than 100 µM; in [4], more than 100 µM; in [5], more than 100 µM; in experiment [6] it was 12.5 µM. The GI50 in experiment [7], in [8], in experiment [9] and in [10] was more than 100 µM each time. Besides, the TGI in experiment [1] was more than 100 µM; in [2], more than 100 µM; in experiment [3], more than 100 µM; in [4] it was more than 100 µM; in experiment [5], more than 100 µM; in experiment [6], 28.8 µM. For the same compound, the TGI in experiment [7], in experiment [8], in [9] and in [10] was more than 100 µM in each case.

The values above are taken from PubChem BioAssay (NCI).
